For one assay, the target named is Rho kinase 1 (ROCK-I) (Homo sapiens, UniProt Q13464). As to the kind of experiment: In vitro Rho kinase inhibitory activity assay (ADP-Glo), Rho kinase 1. Type of assay: biochemical. To be noted: 10 μM ATP, 25° C., expressed as range of activity. The method in brief:
(§1)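 Each kinase (ROCK1 or ROCK2) sat with compound for 30 min at 25 °C before 10 μM ATP started a 1 h reaction on 2.5 μM myelin basic protein (Tris pH 7.5, MgCl2, BSA, DTT, 1% DMSO). ADP formed was read by ADP-Glo luminescence. Dose-response IC50s were converted to Ki by Cheng-Prusoff.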
(In general: In ADP-Glo the light output rises with the ADP produced.)

A further assay concerns the target Rho kinase 2 (ROCK-II) (Homo sapiens, UniProt O75116). The assay is described as follows: In vitro Rho kinase inhibitory activity assay (ADP-Glo), Rho kinase 2. The format is biochemical. The settings on record: 10 μM ATP, 25° C., expressed as range of activity. The method in brief: as §1

Among the data in US10501461B2, “Tyrosine amide derivatives as Rho-kinase inhibitors” (CHIESI FARMACEUTICI S.P.A., priority 2017, dated 2019) are Ki values, retold here.

Bounds are passed on as bounds.

Chain of Rho kinase 1 (ROCK-I) (Q13464 whole entry): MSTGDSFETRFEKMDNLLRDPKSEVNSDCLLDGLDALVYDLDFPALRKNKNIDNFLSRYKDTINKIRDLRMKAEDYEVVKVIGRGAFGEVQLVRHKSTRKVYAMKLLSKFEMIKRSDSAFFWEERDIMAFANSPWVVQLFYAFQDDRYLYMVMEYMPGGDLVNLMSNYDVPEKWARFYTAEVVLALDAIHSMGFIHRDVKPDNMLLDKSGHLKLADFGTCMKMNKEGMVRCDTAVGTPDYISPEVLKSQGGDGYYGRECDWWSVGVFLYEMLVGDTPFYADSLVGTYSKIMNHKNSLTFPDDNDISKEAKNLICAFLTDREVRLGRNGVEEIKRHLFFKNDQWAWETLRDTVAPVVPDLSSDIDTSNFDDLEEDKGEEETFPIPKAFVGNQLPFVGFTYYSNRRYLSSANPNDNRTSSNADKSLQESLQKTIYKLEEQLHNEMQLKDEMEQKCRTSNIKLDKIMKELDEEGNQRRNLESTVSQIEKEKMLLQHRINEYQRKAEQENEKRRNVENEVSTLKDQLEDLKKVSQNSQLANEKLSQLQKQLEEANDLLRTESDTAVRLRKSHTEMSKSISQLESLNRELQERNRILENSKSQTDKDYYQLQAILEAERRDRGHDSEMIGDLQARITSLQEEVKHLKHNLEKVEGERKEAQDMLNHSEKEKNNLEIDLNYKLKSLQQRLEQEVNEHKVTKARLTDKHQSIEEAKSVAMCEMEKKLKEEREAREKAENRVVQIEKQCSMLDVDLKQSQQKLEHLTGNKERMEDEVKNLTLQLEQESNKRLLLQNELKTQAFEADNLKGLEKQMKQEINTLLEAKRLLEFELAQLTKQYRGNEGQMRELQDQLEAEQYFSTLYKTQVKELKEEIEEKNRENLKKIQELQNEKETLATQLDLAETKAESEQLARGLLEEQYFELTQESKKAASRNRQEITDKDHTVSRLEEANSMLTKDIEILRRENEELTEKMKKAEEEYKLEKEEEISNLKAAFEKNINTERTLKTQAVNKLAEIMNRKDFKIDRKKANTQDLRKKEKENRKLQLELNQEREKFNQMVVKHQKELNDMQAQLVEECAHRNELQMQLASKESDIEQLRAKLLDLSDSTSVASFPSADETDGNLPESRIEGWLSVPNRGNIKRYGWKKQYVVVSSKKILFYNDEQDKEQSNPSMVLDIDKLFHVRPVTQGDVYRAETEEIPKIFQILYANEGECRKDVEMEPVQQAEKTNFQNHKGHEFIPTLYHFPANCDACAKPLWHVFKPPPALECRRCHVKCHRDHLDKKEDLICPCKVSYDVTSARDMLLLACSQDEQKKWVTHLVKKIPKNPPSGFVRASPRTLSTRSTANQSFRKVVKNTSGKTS
Chain of Rho kinase 2 (ROCK-II) (O75116 whole entry): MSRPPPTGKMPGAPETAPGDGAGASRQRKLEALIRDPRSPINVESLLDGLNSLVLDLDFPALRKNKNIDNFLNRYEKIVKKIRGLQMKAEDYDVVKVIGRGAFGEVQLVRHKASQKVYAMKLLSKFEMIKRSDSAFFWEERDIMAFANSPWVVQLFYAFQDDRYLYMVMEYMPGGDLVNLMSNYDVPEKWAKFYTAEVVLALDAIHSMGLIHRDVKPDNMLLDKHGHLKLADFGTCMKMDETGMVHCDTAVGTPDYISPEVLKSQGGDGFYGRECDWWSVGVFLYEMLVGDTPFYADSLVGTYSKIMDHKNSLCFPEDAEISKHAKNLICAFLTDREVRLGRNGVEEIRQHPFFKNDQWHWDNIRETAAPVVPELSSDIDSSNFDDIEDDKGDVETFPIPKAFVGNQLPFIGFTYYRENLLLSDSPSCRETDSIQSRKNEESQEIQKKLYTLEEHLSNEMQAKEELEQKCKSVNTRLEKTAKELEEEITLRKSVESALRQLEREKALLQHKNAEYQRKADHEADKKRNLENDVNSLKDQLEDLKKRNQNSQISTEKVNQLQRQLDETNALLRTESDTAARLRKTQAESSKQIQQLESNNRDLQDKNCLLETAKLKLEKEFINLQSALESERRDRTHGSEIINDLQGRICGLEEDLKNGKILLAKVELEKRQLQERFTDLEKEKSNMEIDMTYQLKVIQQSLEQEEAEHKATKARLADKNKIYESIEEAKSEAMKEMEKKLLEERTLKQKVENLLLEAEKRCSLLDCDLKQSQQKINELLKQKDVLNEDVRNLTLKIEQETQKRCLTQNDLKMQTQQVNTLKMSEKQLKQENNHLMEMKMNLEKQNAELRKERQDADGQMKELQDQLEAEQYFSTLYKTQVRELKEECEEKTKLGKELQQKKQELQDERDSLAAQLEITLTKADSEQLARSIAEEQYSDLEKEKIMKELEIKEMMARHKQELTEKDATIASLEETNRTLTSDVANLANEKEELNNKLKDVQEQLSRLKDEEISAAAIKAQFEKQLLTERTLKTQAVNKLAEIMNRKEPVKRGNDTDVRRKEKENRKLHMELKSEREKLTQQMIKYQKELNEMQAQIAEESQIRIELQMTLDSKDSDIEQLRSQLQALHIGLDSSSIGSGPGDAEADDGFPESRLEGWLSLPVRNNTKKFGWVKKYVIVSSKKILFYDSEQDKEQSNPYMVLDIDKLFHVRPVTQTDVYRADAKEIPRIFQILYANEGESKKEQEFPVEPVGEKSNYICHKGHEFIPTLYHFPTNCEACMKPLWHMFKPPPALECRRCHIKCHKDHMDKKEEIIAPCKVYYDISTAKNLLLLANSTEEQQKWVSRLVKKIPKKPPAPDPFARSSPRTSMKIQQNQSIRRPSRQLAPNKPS

Consider `N#Cc1c[nH]c2nccc(Oc3ccc(C[C@H](N)C(=O)N4CCN(Cc5ccccc5)CC4)cc3F)c12` [Example 220, (S)-4-(4-(2-amino-3-(4-benzylpiperazin-1-yl)-3-oxopropyl)-2-fluorophenoxy)-1H-pyrrolo[2,3-b]pyridine-3-carbonitrile], for which the Ki at Rho kinase 1 (ROCK-I) and at Rho kinase 2 (ROCK-II) was < 3 nM each time.
`CCn1nccc1-c1c[nH]c2nccc(Oc3ccc(C[C@H](N)C(=O)N4CCN(Cc5ccccc5)CC4)cc3)c12` [Example 193, (S)-2-amino-1-(4-benzylpiperazin-1-yl)-3-(4-((3-(1-ethyl-1H-pyrazol-5-yl)-1H-pyrrolo[2,3-b]pyridin-4-yl)oxy)phenyl)propan-1-one]: the Ki on Rho kinase 1 (ROCK-I) and on Rho kinase 2 (ROCK-II) was 3 to 30 nM in each case.
On to `Cc1c[nH]c2nccc(Oc3ccc(CC(N)C(=O)NC4CCN(Cc5ccccc5)CC4)cc3F)c12` (stereo not drawn) [Example 83, 2-amino-N-(1-benzylpiperidin-4-yl)-3-(3-fluoro-4-((3-methyl-1H-pyrrolo[2,3-b]pyridin-4-yl)oxy)phenyl)propanamide], for which the Ki at Rho kinase 1 (ROCK-I) and on Rho kinase 2 (ROCK-II) was < 3 nM in each case.
Regarding `Cc1c[nH]c2nccc(Oc3ccc(C[C@H](N)C(=O)N4CC(N(C)C)C4)cc3F)c12` [Example 41, (S)-2-amino-1-(3-(dimethylamino)azetidin-1-yl)-3-(3-fluoro-4-((3-methyl-1H-pyrrolo[2,3-b]pyridin-4-yl)oxy)phenyl)propan-1-one], the Ki at Rho kinase 1 (ROCK-I) and on Rho kinase 2 (ROCK-II) was < 3 nM each time.
On to `Cc1c[nH]c2ncnc(Oc3ccc(C[C@H](N)C(=O)N4C[C@@H](C)N(C)[C@@H](C)C4)cc3F)c12` [Example 129, (S)-2-amino-3-(3-fluoro-4-((5-methyl-7H-pyrrolo[2,3-d]pyrimidin-4-yl)oxy)phenyl)-1-((3S,5R)-3,4,5-trimethylpiperazin-1-yl)propan-1-one], for which the Ki on Rho kinase 1 (ROCK-I) and at Rho kinase 2 (ROCK-II) was < 3 nM in each case.
With `Cc1c[nH]c2nccc(Oc3ccc(C[C@H](N)C(=O)N4CC5(CN(C)C5)C4)cc3F)c12` [Example 3, (S)-2-amino-3-(3-fluoro-4-((3-methyl-1H-pyrrolo[2,3-b]pyridin-4-yl)oxy)phenyl)-1-(6-methyl-2,6-diazaspiro[3.3]heptan-2-yl)propan-1-one], the Ki on Rho kinase 1 (ROCK-I) and at Rho kinase 2 (ROCK-II) was 3 to 30 nM in each case.
As to `CN(CC1CCCCC1)C(=O)[C@H](N)Cc1ccc(Oc2ccnc3[nH]ccc23)cc1` [Example 143, (R)-3-(4-((1H-pyrrolo[2,3-b]pyridin-4-yl)oxy)phenyl)-2-amino-N-(cyclohexylmethyl)-N-methylpropanamide], the Ki at Rho kinase 1 (ROCK-I) and on Rho kinase 2 (ROCK-II) was > 30 nM each time.
As for `Cc1c[nH]c2nccc(Oc3ccc(C[C@H](N)C(=O)N4CC5(CNC5)C4)cc3F)c12` [Example 29, (S)-2-amino-3-(3-fluoro-4-((3-methyl-1H-pyrrolo[2,3-b]pyridin-4-yl)oxy)phenyl)-1-(2,6-diazaspiro[3.3]heptan-2-yl)propan-1-one], the Ki at Rho kinase 1 (ROCK-I) and at Rho kinase 2 (ROCK-II) was < 3 nM in each case.
For the molecule `Cc1c[nH]c2nccc(Oc3ccc(CC(N)C(=O)NC4Cc5ccccc5C4)cc3F)c12` (stereo not drawn) [Example 63, 2-amino-N-(2,3-dihydro-1H-inden-2-yl)-3-(3-fluoro-4-((3-methyl-1H-pyrrolo[2,3-b]pyridin-4-yl)oxy)phenyl)propanamide], the Ki at Rho kinase 1 (ROCK-I) and on Rho kinase 2 (ROCK-II) was < 3 nM in each case.
Take `Cc1c[nH]c2nccc(Oc3ccc(C[C@H](N)C(=O)N4CCN(C)C(C)(C)C4)cc3F)c12` [Example 18, (S)-2-amino-3-(3-fluoro-4-((3-methyl-1H-pyrrolo[2,3-b]pyridin-4-yl)oxy)phenyl)-1-(3,3,4-trimethylpiperazin-1-yl)propan-1-one]: the Ki on Rho kinase 1 (ROCK-I) and at Rho kinase 2 (ROCK-II) was < 3 nM throughout.
With `N[C@@H](Cc1ccc(Oc2ccnc3[nH]cc(Br)c23)c(F)c1)C(=O)NC1CCCCC1` [Example 186, (S)-2-amino-3-(4-((3-bromo-1H-pyrrolo[2,3-b]pyridin-4-yl)oxy)-3-fluorophenyl)-N-cyclohexylpropanamide], the Ki at Rho kinase 1 (ROCK-I) and on Rho kinase 2 (ROCK-II) was < 3 nM throughout.
With `N#Cc1c[nH]c2nccc(Oc3ccc(C[C@H](N)C(=O)NC4CCCCC4)cc3)c12` [Example 219, (S)-2-amino-3-(4-((3-cyano-1H-pyrrolo[2,3-b]pyridin-4-yl)oxy)phenyl)-N-cyclohexylpropanamide], the Ki at Rho kinase 1 (ROCK-I) and at Rho kinase 2 (ROCK-II) was < 3 nM in each case.
For the molecule `Cc1c[nH]c2nccc(Oc3ccc(CC(N)C(=O)N4CCN(Cc5ccccc5)CC4)cc3F)c12` (stereo not drawn) [Example 132, 2-amino-1-(4-benzylpiperazin-1-yl)-3-(3-fluoro-4-((3-methyl-1H-pyrrolo[2,3-b]pyridin-4-yl)oxy)phenyl)propan-1-one], the Ki on Rho kinase 1 (ROCK-I) and on Rho kinase 2 (ROCK-II) was < 3 nM throughout.
Regarding `Cc1c[nH]c2nccc(Oc3ccc(CC(N)C(=O)NCc4ccc(CO)cc4)cc3F)c12` (stereo not drawn) [Example 62, 2-amino-3-(3-fluoro-4-((3-methyl-1H-pyrrolo[2,3-b]pyridin-4-yl)oxy)phenyl)-N-(4-(hydroxymethyl)benzyl)propanamide], the Ki at Rho kinase 1 (ROCK-I) and on Rho kinase 2 (ROCK-II) was < 3 nM each time.
On to `Cc1c[nH]c2nccc(Oc3ccc(C[C@H](N)C(=O)N4CCN(C(=O)C5CC5)CC4)cc3F)c12` [Example 170, (S)-2-amino-1-(4-(cyclopropanecarbonyl)piperazin-1-yl)-3-(3-fluoro-4-((3-methyl-1H-pyrrolo[2,3-b]pyridin-4-yl)oxy)phenyl)propan-1-one], for which the Ki at Rho kinase 1 (ROCK-I) and at Rho kinase 2 (ROCK-II) was < 3 nM in each case.
Consider `Cc1c[nH]c2nccc(Oc3ccc(C[C@H](N)C(=O)N4CCN(Cc5cncn5C)CC4)cc3F)c12` [Example 158, (S)-2-amino-3-(3-fluoro-4--((3-methyl-1H-pyrrolo[2,3-b]pyridin-4-yl)oxy)phenyl)-1-(4-((1-methyl-1H-imidazol-5-yl)methyl)piperazin-1-yl)propan-1-one], for which the Ki at Rho kinase 1 (ROCK-I) and at Rho kinase 2 (ROCK-II) was < 3 nM each time.
In the case of `N[C@@H](Cc1ccc(Oc2ccnc3[nH]cc(-c4cncs4)c23)cc1)C(=O)N1CCN(Cc2ccccc2)CC1` [Example 196, (S)-2-amino-1-(4-benzylpiperazin-1-yl)-3-(4-((3-(thiazol-5-yl)-1H-pyrrolo[2,3-b]pyridin-4-yl)oxy)phenyl)propan-1-one], the Ki on Rho kinase 1 (ROCK-I) and at Rho kinase 2 (ROCK-II) was < 3 nM throughout.
For the molecule `Cc1c[nH]c2nccc(Oc3ccc(C[C@H](N)C(=O)NC4(CO)CCOCC4)cc3F)c12` [Example 33, (S)-2-amino-3-(3-fluoro-4-((3-methyl-1H-pyrrolo[2,3-b]pyridin-4-yl)oxy)phenyl)-N-(4-(hydroxymethyl)tetrahydro-2H-pyran-4-yl)propanamide], the Ki at Rho kinase 1 (ROCK-I) and at Rho kinase 2 (ROCK-II) was < 3 nM each time.
Regarding `NC(Cc1ccc(Oc2ccnc3[nH]ccc23)cc1)C(=O)Nc1ccc(C(F)(F)F)cc1` (single isomer, unassigned) [Example 91A, 3-(4-((1H-pyrrolo[2,3-b]pyridin-4-yl)oxy)phenyl)-2-amino-N-(4-(trifluoromethyl)phenyl)propanamide], the Ki at Rho kinase 1 (ROCK-I) and at Rho kinase 2 (ROCK-II) was < 3 nM in each case.
`Cc1c[nH]c2ncnc(Oc3ccc(C[C@H](N)C(=O)N4CCC(O)(Cc5ccccc5)CC4)cc3F)c12` [Example 123, (S)-2-amino-1-(4-benzyl-4-hydroxypiperidin-1-yl)-3-(3-fluoro-4-((5-methyl-7H-pyrrolo[2,3-d]pyrimidin-4-yl)oxy)phenyl)propan-1-one]: the Ki at Rho kinase 1 (ROCK-I) and on Rho kinase 2 (ROCK-II) was < 3 nM throughout.
For the molecule `N[C@@H](Cc1ccc(Oc2ccnc3[nH]cc(Br)c23)cc1)C(=O)NC1CCCCC1` [Example 188, (S)-2-amino-3-(4-((3-bromo-1H-pyrrolo[2,3-b]pyridin-4-yl)oxy)phenyl)-N-cyclohexylpropanamide], the Ki at Rho kinase 1 (ROCK-I) and on Rho kinase 2 (ROCK-II) was < 3 nM each time.
Regarding `Cc1c[nH]c2nccc(Oc3ccc(CC(N)C(=O)N4CCCC4c4ccccc4)cc3F)c12` (single isomer, unassigned) [Example 84, 2-amino-3-(3-fluoro-4-((3-methyl-1H-pyrrolo[2,3-b]pyridin-4-yl)oxy)phenyl)-1-(2-phenylpyrrolidin-1-yl)propan-1-one], the Ki on Rho kinase 1 (ROCK-I) and at Rho kinase 2 (ROCK-II) was 3 to 30 nM each time.
With `Cc1c[nH]c2nccc(Oc3ccc(C[C@H](N)C(=O)NC4(CCO)CCCCC4)cc3F)c12` [Example 36, (S)-2-amino-3-(3-fluoro-4-((3-methyl-1H-pyrrolo[2,3-b]pyridin-4-yl)oxy)phenyl)-N-(1-(2-hydroxyethyl)cyclohexyl)propanamide], the Ki on Rho kinase 1 (ROCK-I) and on Rho kinase 2 (ROCK-II) was < 3 nM in each case.
Regarding `N[C@@H](Cc1ccc(Oc2ccnc3[nH]ccc23)cc1)C(=O)NCc1ccccc1` [Example 97, (S)-3-(4-((1H-pyrrolo[2,3-b]pyridin-4-yl)oxy)phenyl)-2-amino-N-benzylpropanamide], the Ki on Rho kinase 1 (ROCK-I) and on Rho kinase 2 (ROCK-II) was 3 to 30 nM each time.
As for `CN(C)CCNC(=O)[C@H](N)Cc1ccc(Oc2ccnc3[nH]ccc23)cc1` [Example 96, (R)-3-(4-((1H-pyrrolo[2,3-b]pyridin-4-yl)oxy)phenyl)-2-amino-N-(2-(dimethylamino)ethyl)propanamide], the Ki at Rho kinase 1 (ROCK-I) and on Rho kinase 2 (ROCK-II) was > 30 nM each time.
Turning to `Cc1c[nH]c2nccc(Oc3ccc(CC(N)C(=O)N4CCN(C)CC4)cc3F)c12` (stereo not drawn) [Example 59, 2-amino-3-(3-fluoro-4-((3-methyl-1H-pyrrolo[2,3-b]pyridin-4-yl)oxy)phenyl)-1-(4-methylpiperazin-1-yl)propan-1-one], the Ki on Rho kinase 1 (ROCK-I) and at Rho kinase 2 (ROCK-II) was < 3 nM each time.
Consider `Cc1c[nH]c2nccc(Oc3ccc(CC(N)C(=O)N4CCN(Cc5ccc6c(c5)OCO6)CC4)cc3F)c12` (stereo not drawn) [Example 52, 2-amino-1-(4-(benzo[d][1,3]dioxol-5-ylmethyl)piperazin-1-yl)-3-(3-fluoro-4-((3-methyl-1H-pyrrolo[2,3-b]pyridin-4-yl)oxy)phenyl)propan-1-one], for which the Ki at Rho kinase 1 (ROCK-I) and at Rho kinase 2 (ROCK-II) was < 3 nM each time.
